According to PubChem BioAssay AID2060333 (Molecular Pharmacology Branch, DTP, NCI, 2025):

Tested on: 845751-090-R-J2-PDC tumor spheroid viability
Test: Anticancer human tumor 845751-090-R-J2-PDC patient-derived head and neck squamous carcinoma cell line growth inhibition [IpAb]
Settings: spheroids with HUVEC and MSC; for IC50: curve of first compound; for viability, T/C: stronger effect = lower value
Procedure, shortened: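 Combinations with ipatasertib or abemaciclib were tested on tumour spheroids holding HUVEC (25%) and MSC (15%) alongside 60% malignant cells. Top concentration was at or near clinical Cmax (10 microM if undefined), descending in half-log steps.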

[1] = second compound 0.1 µM, first compound 0.000316 µM
[2] = second compound 0.1 µM, first compound 0.001 µM
[3] = second compound 0.1 µM, first compound 0.00316 µM
[4] = second compound 0.1 µM, first compound 0.01 µM
[5] = second compound 0.1 µM, first compound 0.0316 µM
[6] = second compound 0.1 µM, first compound 0.1 µM
[7] = second compound 0.316 µM, first compound 0.000316 µM
[8] = second compound 0.316 µM, first compound 0.001 µM
[9] = second compound 0.316 µM, first compound 0.00316 µM
[10] = second compound 0.316 µM, first compound 0.01 µM
[11] = second compound 0.316 µM, first compound 0.0316 µM
[12] = second compound 0.316 µM, first compound 0.1 µM
[13] = second compound 1 µM, first compound 0.000316 µM
[14] = second compound 1 µM, first compound 0.001 µM
[15] = second compound 1 µM, first compound 0.00316 µM
[16] = second compound 1 µM, first compound 0.01 µM
[17] = second compound 1 µM, first compound 0.0316 µM
[18] = second compound 1 µM, first compound 0.1 µM
[19] = second compound 3.16 µM, first compound 0.0316 µM
[20] = second compound 3.16 µM, first compound 0.1 µM
[21] = second compound 10 µM, first compound 0.0316 µM
[22] = second compound 10 µM, first compound 0.1 µM
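Also: spheroids exposed to compounds for 7 days before readout.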
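For viability, T/C in this document: CTG3D luminescence normalised so that 100% = DMSO vehicle control.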

CC(C)n1nc(-c2ccc3oc(N)nc3c2)c2c(N)ncnc21 + CCN1CCN(Cc2ccc(Nc3ncc(F)c(-c4cc(F)c5nc(C)n(C(C)C)c5c4)n3)nc2)CC1
IC50 (second compound 0.01 µM): 1.1 nM | IC50 (second compound 0.0316 µM): 3.84 nM | IC50 (second compound 0.1 µM): 2.92 nM | IC50 (second compound 0.316 µM): 2.75 nM | IC50 (second compound 1 µM): 12.3 nM | viability, T/C (second compound 0.01 µM, first compound 0.000316 µM): 72.6% | viability, T/C (second compound 0.01 µM, first compound 0.001 µM): 47.8% | viability, T/C (second compound 0.01 µM, first compound 0.00316 µM): 39.2% | viability, T/C (second compound 0.01 µM, first compound 0.01 µM): 33% | viability, T/C (second compound 0.01 µM, first compound 0.0316 µM): 26.8% | viability, T/C (second compound 0.01 µM, first compound 0.1 µM): 21.1% | viability, T/C (second compound 0.0316 µM, first compound 0.000316 µM): 66.7% | viability, T/C (second compound 0.0316 µM, first compound 0.001 µM): 68.2% | viability, T/C (second compound 0.0316 µM, first compound 0.00316 µM): 54.3% | viability, T/C (second compound 0.0316 µM, first compound 0.01 µM): 28.1% | viability, T/C (second compound 0.0316 µM, first compound 0.0316 µM): 26.6% | viability, T/C (second compound 0.0316 µM, first compound 0.1 µM): 23.5% | viability, T/C [1]: 62.6% | viability, T/C [2]: 50.2% | viability, T/C [3]: 52.2% | viability, T/C [4]: 30.3% | viability, T/C [5]: 25.7% | viability, T/C [6]: 20.6% | viability, T/C [7]: 47.5% | viability, T/C [8]: 56.6% | viability, T/C [9]: 49.6% | viability, T/C [10]: 33.4% | viability, T/C [11]: 32.7% | viability, T/C [12]: 30.2% | viability, T/C [13]: 56.7% | viability, T/C [14]: 74% | viability, T/C [15]: 57.7% | viability, T/C [16]: 49% | viability, T/C [17]: 45.5% | viability, T/C [18]: 34.7%

CC(C)n1nc(-c2ccc3oc(N)nc3c2)c2c(N)ncnc21 + CC(C)NCC(C(=O)N1CCN(c2ncnc3c2C(C)CC3O)CC1)c1ccc(Cl)cc1
IC50 (second compound 0.1 µM): 1.3 nM | IC50 (second compound 0.316 µM): < 0.316 nM | IC50 (second compound 1 µM): < 0.316 nM | IC50 (second compound 3.16 µM): < 0.316 nM | IC50 (second compound 10 µM): < 0.316 nM | viability, T/C [1]: 55.2% | viability, T/C [2]: 48.8% | viability, T/C [3]: 45.1% | viability, T/C [4]: 28.1% | viability, T/C [5]: 21.2% | viability, T/C [6]: 21.8% | viability, T/C [7]: 36% | viability, T/C [8]: 27.3% | viability, T/C [9]: 23.3% | viability, T/C [10]: 13.5% | viability, T/C [11]: 11.2% | viability, T/C [12]: 9.02% | viability, T/C [13]: 22.4% | viability, T/C [14]: 22.9% | viability, T/C [15]: 12.2% | viability, T/C [16]: 8.4% | viability, T/C [17]: 8.17% | viability, T/C [18]: 9.76% | viability, T/C (second compound 3.16 µM, first compound 0.000316 µM): 24.3% | viability, T/C (second compound 3.16 µM, first compound 0.001 µM): 13.1% | viability, T/C (second compound 3.16 µM, first compound 0.00316 µM): 8.4% | viability, T/C (second compound 3.16 µM, first compound 0.01 µM): 5.71% | viability, T/C [19]: 4% | viability, T/C [20]: 3.17% | viability, T/C (second compound 10 µM, first compound 0.000316 µM): 8.63% | viability, T/C (second compound 10 µM, first compound 0.001 µM): 7.55% | viability, T/C (second compound 10 µM, first compound 0.00316 µM): 4.17% | viability, T/C (second compound 10 µM, first compound 0.01 µM): 4.42% | viability, T/C [21]: 2.07% | viability, T/C [22]: 1.99%

C=CC(=O)N1CCN(c2nc(=O)n(-c3c(C)ccnc3C(C)C)c3nc(-c4c(O)cccc4F)c(F)cc23)C(C)C1 (stereo not given) + CC(C)NCC(C(=O)N1CCN(c2ncnc3c2C(C)CC3O)CC1)c1ccc(Cl)cc1
IC50 (second compound 0.1 µM): < 31.6 nM | IC50 (second compound 0.316 µM): < 31.6 nM | IC50 (second compound 1 µM): < 31.6 nM | IC50 (second compound 3.16 µM): < 31.6 nM | IC50 (second compound 10 µM): < 31.6 nM | viability, T/C [5]: 47.1% | viability, T/C [6]: 46.7% | viability, T/C (second compound 0.1 µM, first compound 0.316 µM): 28.9% | viability, T/C (second compound 0.1 µM, first compound 1 µM): 36.3% | viability, T/C (second compound 0.1 µM, first compound 3.16 µM): 22.1% | viability, T/C (second compound 0.1 µM, first compound 10 µM): 10.7% | viability, T/C [11]: 28.2% | viability, T/C [12]: 30.3% | viability, T/C (second compound 0.316 µM, first compound 0.316 µM): 21.2% | viability, T/C (second compound 0.316 µM, first compound 1 µM): 24.9% | viability, T/C (second compound 0.316 µM, first compound 3.16 µM): 21.9% | viability, T/C (second compound 0.316 µM, first compound 10 µM): 13.8% | viability, T/C [17]: 22.9% | viability, T/C [18]: 25% | viability, T/C (second compound 1 µM, first compound 0.316 µM): 21.5% | viability, T/C (second compound 1 µM, first compound 1 µM): 28.2% | viability, T/C (second compound 1 µM, first compound 3.16 µM): 19.3% | viability, T/C (second compound 1 µM, first compound 10 µM): 7.88% | viability, T/C [19]: 21.7% | viability, T/C [20]: 18.3% | viability, T/C (second compound 3.16 µM, first compound 0.316 µM): 22.9% | viability, T/C (second compound 3.16 µM, first compound 1 µM): 19.7% | viability, T/C (second compound 3.16 µM, first compound 3.16 µM): 11.9% | viability, T/C (second compound 3.16 µM, first compound 10 µM): 5.86% | viability, T/C [21]: 15.2% | viability, T/C [22]: 12.3% | viability, T/C (second compound 10 µM, first compound 0.316 µM): 12.2% | viability, T/C (second compound 10 µM, first compound 1 µM): 12.5% | viability, T/C (second compound 10 µM, first compound 3.16 µM): 8.32% | viability, T/C (second compound 10 µM, first compound 10 µM): 3.28%
